Reference: patent publication US20130202629A1, “USES OF PHOSPHOLIPID CONJUGATES OF SYNTHETIC TLR7 AGONISTS” (The Regents of the University of California, priority 2010, published 2013)

Columns and labels:
C57BL/6 mice = assay: In vivo evaluation of adverse effects after OVA plus TLR7 conjugate immunization; details: OVA mixed with conjugate, 10 nmoles per mouse
TLR7 = biological target: T1, TLR7 (Mus musculus, UniProt P58681); assay: In vitro cytokine induction (TNF-alpha, IL-6, IL-12; ELISA) in murine macrophages: RAW264.7 cells and BMDM; assay type: cell-based; details: normalized to the molar level of the unconjugated agonist (SM)
T1 construct: BMDM were prepared from C57BL/6 and TLR7 deficient mice; endogenous in cells; host or cells: RAW264.7 (ATCC); bone marrow derived macrophages from C57BL/6 mice
T1 sequence (P58681 27-1050): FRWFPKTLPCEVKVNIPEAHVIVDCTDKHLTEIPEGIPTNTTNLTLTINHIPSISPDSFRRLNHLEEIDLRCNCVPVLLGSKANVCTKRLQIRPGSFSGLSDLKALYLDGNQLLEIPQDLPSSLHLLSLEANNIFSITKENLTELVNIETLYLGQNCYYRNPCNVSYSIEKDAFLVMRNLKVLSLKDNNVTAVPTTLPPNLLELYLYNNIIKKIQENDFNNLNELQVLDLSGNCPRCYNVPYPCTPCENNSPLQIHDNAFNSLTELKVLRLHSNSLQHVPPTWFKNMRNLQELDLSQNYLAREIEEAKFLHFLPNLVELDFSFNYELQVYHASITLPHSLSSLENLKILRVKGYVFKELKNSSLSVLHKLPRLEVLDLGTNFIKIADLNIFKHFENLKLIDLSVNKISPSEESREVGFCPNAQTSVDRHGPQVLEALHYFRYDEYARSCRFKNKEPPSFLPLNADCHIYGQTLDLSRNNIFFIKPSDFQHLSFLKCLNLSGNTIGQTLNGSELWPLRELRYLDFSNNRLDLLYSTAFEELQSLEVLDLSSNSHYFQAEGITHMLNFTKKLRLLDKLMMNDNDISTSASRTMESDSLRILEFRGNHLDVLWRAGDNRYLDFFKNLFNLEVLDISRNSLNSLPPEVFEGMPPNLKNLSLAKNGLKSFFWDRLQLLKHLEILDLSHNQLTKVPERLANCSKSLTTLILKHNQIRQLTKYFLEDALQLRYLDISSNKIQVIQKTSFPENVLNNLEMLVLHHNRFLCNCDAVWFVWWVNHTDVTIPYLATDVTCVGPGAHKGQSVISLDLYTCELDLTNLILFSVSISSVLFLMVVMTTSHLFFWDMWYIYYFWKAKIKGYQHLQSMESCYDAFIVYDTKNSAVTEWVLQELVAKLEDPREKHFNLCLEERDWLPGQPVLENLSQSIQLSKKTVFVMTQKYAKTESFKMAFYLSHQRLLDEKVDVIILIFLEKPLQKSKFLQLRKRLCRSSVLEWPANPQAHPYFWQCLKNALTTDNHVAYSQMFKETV
Description: In vitro measurements of cytokine induction were performed using the mouse leukemic monocyte macrophage cell line, RAW264.7. […] BMDM were prepared from C57BL/6 and TLR7 deficient mice as described in Wu, C. C et al., “Immunotherapeutic activity of a conjugate of a Toll-like receptor 7 ligand”, Proc. Natl. Acad. Sci. USA, 104:3990 (2007).
In general, RAW264.7 cells or BMDM were incubated with various concentrations of conjugates for 18 hours at 37° C., 5% CO2 and culture supernatants were collected. The levels of cytokines (IL-6, IL-12 or TNF-α in the supernatants were determined by ELISA (BD Biosciences Pharmingen, La Jolla, Calif.) (Cho, H. J et al., “Immunostimulatory DNA-based vaccines induce cytotoxic lymphocyte activity by a T-helper cell-independent mechanism” [see comments], Nat. Biotechnol., 18:509 (2000)), and the results presented in FIGS. 2A-D. Data are mean±SEM of triplicates and are representative of three independent experiments. Minimum detection levels of these cytokines were 15 pg/mL.
TNFα levels were measured (see FIG. 2A) by incubating approximately 1×10^6/mL RAW 264.7 cells with the various conjugates or controls, as described above. IL-6 and IL-12 levels were measured (see FIGS. 2B-D) by incubating 0.5×10^6/mL BMDM with the various conjugates or controls, as described above. […]

[1] = tested on: Anthrax Sterne strain spores; assay type: in vivo, Bacillus anthracis
[2] = Nanoparticle size and stability in PBS (Malvern Zetasizer); assay type: physicochemical; details: 50 μM or 100 μM
Description: 1V270 was dissolved in Phosal 50 PG (Phospholipid Gmbh, Cologne, Germany) to make a 20× concentrated solution. The Phosal 50 PG-1V270 mixture was further diluted (1:19) with nanopure water to make a 5% Phosal 50 PG:water suspension. The suspension was vortexed vigorously and sonicated in a sonicating bath for 10 minutes. The suspension was further sonicated with a probe sonicater (Branson Sonifier Cell Disrupter 185) at 30% power for a total of 30 seconds at 10 second intervals with 10 seconds rest between so as to not overheat the suspension. Finally, the suspension was passed through a 100 nm filter with syringe extruder a total of 10 times back and forth. The final nanoparticles were analyzed with a Malvern Zetasizer to check size distribution. The resulting particles may be referred to as nanoliposomes (a submicron bilayer lipid vesicle) (see Chapter 2 by Mozafari in: Liposomes, Methods in Molecular Biology, vol. 605, V. Weissing (ed.), Humana Press, the disclosure of which is incorporated by reference herein). Nanoliposomes provide more surface area and may increase solubility, bioavailability and targeting.
UV-1V270 particles were diluted in PBS to 50 μM (A) or 100 μM (B) and particle size measured over time. […] The particle size of UV-1V270 in PBS was relatively constant with an average of about 110 nm regardless of concentration.

CCCCCCCC/C=C\CCCCCCCC(=O)OCC(COP(=O)(O)OCCNC(=O)c1ccc(Cn2c(=O)[nH]c3c(N)nc(OCCOC)nc32)cc1)OC(=O)CCCCCCC/C=C\CCCCCCCC (stereo not shown) [Compound 6, 2-(4-((6-amino-2-(2-methoxyethoxy)-8-oxo-7H-purin-9(8H)-yl)methyl)benzamido)ethyl 2,3-bis(oleoyloxy)propyl phosphate]
average body weights versus mice injected saline (C57BL/6 mice): No significant differences
potency as cytokine inducer relative to the unconjugated agonist (TLR7): 10 fold
survival on day 30, long term experiment ([1]; IRS mixed with 1 nmol, i.n. three times at two week intervals, challenge four weeks later): 100%
survival on day 15, short term experiment ([1]; IRS with 1 nmol, single vaccination, challenge six days later): More than half
effective dose, unformulated in DMSO ([1]; adjuvant with IRS): 1 nmol
efficacy compared with cholera toxin (CT) as adjuvant ([1]; in vivo): slightly more effective than mice that received CT as an adjuvant
protection from pulmonary anthrax infection ([1]; mucosal immunization with killed anthrax spores): completely protected mice from pulmonary anthrax infection
spore-specific cellular immune responses ([1]; splenocytes of surviving mice cultured with IRS for 5 days): induced spore-specific Th1 and Th17 cellular immune responses
nanoparticle stability over time [2]: generally stable over time
particle size, average diameter ([2]; regardless of concentration): about 110 nm
